The source of these data is patent US11267800B2, “Cyclohexyl acid triazole azines as LPA antagonists” (BRISTOL-MYERS SQUIBB COMPANY, priority 2017, dated 2022).

The structures appear in SMILES notation.

For the assay, the target named is T1, human LPA1 (Homo sapiens, UniProt Q92633).
T1 construct: expressed in transfected cells; host or cells: Chinese hamster ovary (CHO) cells
T1 sequence (Q92633 whole entry): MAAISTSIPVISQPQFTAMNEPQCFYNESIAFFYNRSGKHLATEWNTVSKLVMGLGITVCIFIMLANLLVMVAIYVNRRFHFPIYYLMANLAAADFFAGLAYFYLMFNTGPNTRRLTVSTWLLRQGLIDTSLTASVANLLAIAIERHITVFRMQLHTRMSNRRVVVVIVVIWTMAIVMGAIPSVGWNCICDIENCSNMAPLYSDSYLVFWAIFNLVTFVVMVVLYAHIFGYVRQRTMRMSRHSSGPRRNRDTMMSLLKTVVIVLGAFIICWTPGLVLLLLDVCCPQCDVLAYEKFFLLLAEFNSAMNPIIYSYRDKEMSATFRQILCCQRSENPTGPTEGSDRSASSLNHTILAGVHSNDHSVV
The assay can be described thus: LPA1 functional antagonist assay (calcium flux). Format: cell-based. Particulars: CHO cells overexpressing human LPA1; inhibition of calcium flux induced by 10 nM LPA; read-out: hLPA1 IC50. The method, then: The effectiveness of compounds of the present invention as LPA1 inhibitors can be determined in an LPA1 functional antagonist assay as follows:
Chinese hamster ovary cells overexpressing human LPA1 were plated overnight (15,000 cells/well) in poly-D-lysine coated 384-well microplates (Greiner bio-one, Cat #781946) in DMEM/F12 medium (Gibco, Cat #11039). Following overnight culture, cells were loaded with calcium indicator dye (AAT Bioquest Inc, Cat #34601) for 30 minutes at 37° C. The cells were then equilibrated to room temperature for 30 minutes before the assay. Test compounds solubilized in DMSO were transferred to 384 well non-binding surface plates (Corning, Cat #3575) using the Labcyte Echo acoustic dispense and diluted with assay buffer [1×HBSS with calcium/magnesium (Gibco Cat #14025-092), 20 mM HEPES (Gibco Cat #15630-080) and 0.1% fatty acid free BSA (Sigma Cat #A9205)] to a final concentration of 0.5% DMSO. Diluted compounds were added to the cells by FDSS6000 (Hamamatsu) at final concentrations ranging from 0.08 nM to 5 μM. and were then incubated for 20 min at room temperature at which time LPA (Avanti Polar Lipids Cat #857130C) was added at final concentrations of 10 nM to stimulate the cells. The compound IC50 value was defined as the concentration of test compound which inhibited 50% of the calcium flux induced by LPA alone. IC50 values were determined by fitting data to a 4-parameter logistic equation (GraphPad Prism, San Diego Calif.).
A general note: Calcium assays in cells follow changes in intracellular calcium, usually with a dye or a luminescent sensor.
Take `CCCNc1nc(OCc2c(-c3ccc(O[C@H]4CCC[C@H](C(=O)O)C4)c(C)n3)nnn2C)ncc1F` [Example 263]: the IC50 (in general, the concentration that inhibits the measured activity by half) amounted to 96 nM.

As for `Cc1nc(-c2nnn(C)c2CNc2cc(C3CC3)ncn2)ccc1O[C@H]1CCC[C@H](C(=O)O)C1` [Example 373], the half-maximal inhibitory concentration (IC50) came out at 80 nM.

As for `Cc1nc(-c2nnn(C)c2CCNc2nccc(C(C)C)n2)ccc1O[C@H]1CCC[C@H](C(=O)O)C1` [Example 401], the half-inhibitory concentration (IC50) came to 1590 nM.

As to `Cc1nc(-c2nnn(C)c2CNc2ncc(F)c(-c3ccccc3)n2)ccc1O[C@H]1CCC[C@H](C(=O)O)C1` [Example 143], the IC50 came to 26 nM.

Take `Cn1nnc(-c2ccc(O[C@H]3CCC[C@H](C(=O)O)C3)cn2)c1CNc1ncnc(C2CC2)n1` [Example 223, (1S,3S)-3-((6-(5-(((4-cyclopropyl-1,3,5-triazin-2-yl)amino)methyl)-1-methyl-1H-1,2,3-triazol-4-yl)pyridin-3-yl)oxy)cyclohexane-1-carboxylic acid]: the IC50 turned out to be 211 nM.

In the case of `Cc1nc(-c2nnn(C)c2CNc2cncc(-c3ccccc3)n2)ccc1O[C@H]1CCC[C@H](C(=O)O)C1` [Example 220, (1S,3S)-3-((2-Methyl-6-(1-methyl-5-(((6-phenylpyrazin-2-yl)amino)methyl)-1H-1,2,3-triazol-4-yl)pyridin-3-yl)oxy)cyclohexane-1-carboxylic acid], the IC50 is 30 nM.

Take `Cc1nc(-c2nnn(C)c2CNc2cc(OC3CC3)cnn2)ccc1O[C@H]1CCC[C@H](C(=O)O)C1` [Example 219, (1S,3S)-3-((6-(5-(((5-Cyclopropoxy-pyridazin-3-yl)amino)methyl)-1-methyl-1H-1,2,3-triazol-4-yl)-2-methylpyridin-3-yl)oxy)cyclohexane-1-carboxylic acid]: the IC50 was found to be 138 nM.

Consider `Cc1nc(-c2nnn(C)c2CNc2nccc(Oc3cccc(C#N)c3)n2)ccc1O[C@H]1CCC[C@H](C(=O)O)C1` [Example 94], for which the IC50 was determined as 241 nM.

In the case of `Cc1nc(-c2nnn(C)c2CNc2nccc(OCC(C)(F)F)n2)ccc1O[C@H]1CCC[C@H](C(=O)O)C1` [Example 78], the IC50 was found to be 34 nM.

Turning to `Cc1nc(-c2nnn(C)c2COc2cc(C3CC3)ncn2)ccc1O[C@H]1CCC[C@H](C(=O)O)C1` [Example 275], the concentration for half-maximal inhibition (IC50) is 15 nM.

Turning to `CCc1cncc(OCc2c(-c3ccc(O[C@H]4CCC[C@H](C(=O)O)C4)c(C)n3)nnn2C)n1` [Example 300], the IC50 turned out to be 31 nM.

In the case of `Cc1nc(-c2nnn(C)c2CNc2ncc(F)c(NC(C)C)n2)ccc1O[C@H]1CCC[C@H](C(=O)O)C1` [Example 59], the IC50 stood at 59 nM.

Take `COc1ccccc1-c1ccnc(NCc2c(-c3ccc(O[C@H]4CCC[C@H](C(=O)O)C4)c(C)n3)nnn2C)n1` [Example 22]: the concentration for half-maximal inhibition (IC50) was determined as 219 nM.

Consider `Cc1nc(-c2nnn(C)c2CNc2ncccc2OC(C)C)ccc1O[C@H]1CCC[C@H](C(=O)O)C1` [Example 118], for which the IC50 came out at 448 nM.

As for `CCCc1cc(OCc2c(-c3ccc(O[C@H]4CCC[C@H](C(=O)O)C4)c(C)n3)nnn2C)ncn1` [Example 294], the IC50 came to 85 nM.

On to `Cc1nc(-c2nnn(C)c2CN(C)c2ncnc(C3CC3)n2)ccc1O[C@H]1CCC[C@H](C(=O)O)C1` [Example 379, (1S,3S)-3-{[6-(5-{[(4-cyclopropyl-1,3,5-triazin-2-yl)(methyl)amino]methyl}-1-methyl-1H-1,2,3-triazol-4-yl)-2-methylpyridin-3-yl]oxy}cyclohexane-1-carboxylic acid], for which the half-inhibitory concentration (IC50) was determined as 93 nM.

On to `Cc1nc(-c2nnn(C)c2CNc2cc(C(F)(F)F)nc(Cl)n2)ccc1O[C@H]1CCC[C@H](C(=O)O)C1` [Example 125], for which the 50% inhibitory concentration (IC50) was 167 nM.

Turning to `CCCOc1ccnc(NCc2c(-c3ccc(O[C@H]4CCC[C@H](C(=O)O)C4)c(C)n3)nnn2C)n1` [Example 104], the IC50 came to 27 nM.

For `CCOc1ccnc(N(C)Cc2c(-c3ccc(O[C@H]4CCC[C@H](C(=O)O)C4)c(C)n3)nnn2C)n1` [Example 271], the 50% inhibitory concentration (IC50) worked out at 16 nM.

Take `Cc1nc(-c2nnn(C)c2CNc2nccc(C3(C)CC3)n2)ccc1O[C@H]1CCC[C@H](C(=O)O)C1` [Example 151]: the concentration for half-maximal inhibition (IC50) stood at 40 nM.

For `Cc1nc(-c2nnn(C)c2CNc2nccc(OC3CCOC3)n2)ccc1O[C@H]1CCC[C@H](C(=O)O)C1` (stereo partly shown) [Example 83], the IC50 is 172 nM.

Regarding `Cc1nc(-c2nnn(C)c2CNc2cc(C3CC3)cnn2)ccc1O[C@H]1CCC[C@H](C(=O)O)C1` [Example 215, (1S,3S)-3-((6-(5-(((5-Cyclopropyl-pyridazin-3-yl)amino)methyl)-1-methyl-1H-1,2,3-triazol-4-yl)-2-methylpyridin-3-yl)oxy)cyclohexane-1-carboxylic acid], the IC50 stood at 278 nM.

In the case of `Cc1nc(-c2nnn(C)c2CNc2ncnc(C(C)(C)C)n2)ccc1O[C@H]1CCC[C@H](C(=O)O)C1` [Example 182], the half-maximal inhibitory concentration (IC50) turned out to be 693 nM.

On to `Cn1nnc(-c2ccc(O[C@H]3CCC[C@H](C(=O)O)C3)cn2)c1COc1nccc(C2CC2)n1` [Example 348], for which the half-maximal inhibitory concentration (IC50) came out at 118 nM.

For `Cc1nc(-c2nnn(C)c2CNc2nccc(-c3ccccc3)n2)cnc1O[C@H]1CCC[C@H](C(=O)O)C1` [Example 137], the IC50 came to 56 nM.

In the case of `Cc1nc(-c2nnn(C)c2CNc2nccc(C3CC(F)C3)n2)ccc1O[C@H]1CCC[C@H](C(=O)O)C1` (stereo partly shown) [Example 156], the IC50 worked out at 32 nM.

Consider `CCc1nc(CC)nc(NCc2c(-c3ccc(O[C@H]4CCC[C@H](C(=O)O)C4)c(C)n3)nnn2C)n1` [Example 203, (1S,3S)-3-((6-(5-(((4,6-Diethyl-1,3,5-triazin-2-yl)amino)methyl)-1-methyl-1H-1,2,3-triazol-4-yl)-2-methyl-pyridin-3-yl)oxy)cyclohexane-1-carboxylic acid], for which the IC50 turned out to be 59 nM.

Turning to `Cc1nc(-c2nnn(C)c2CNc2cc(-c3ccccc3)cnn2)ccc1O[C@H]1CCC[C@H](C(=O)O)C1` [Example 214, (1S,3S)-3-((2-Methyl-6-(1-methyl-5-(((5-phenylpyridazin-3-yl)amino)methyl)-1H-1,2,3-triazol-4-yl)pyridin-3-yl)oxy)cyclohexane-1-carboxylic acid], the IC50 is 297 nM.

With `Cc1nc(-c2nnn(C)c2CNc2ncnc(N3CCCC3)n2)ccc1O[C@H]1CCC[C@H](C(=O)O)C1` [Example 70], the half-maximal inhibitory concentration (IC50) turned out to be 319 nM.

`Cc1nc(-c2nnn(C)c2COc2cc(N3CCCC3)ncn2)ccc1O[C@H]1CCC[C@H](C(=O)O)C1` [Example 298]: the IC50 is 121 nM.

Consider `Cc1nc(-c2nnn(C)c2Nc2nccc(OCCCF)n2)ccc1O[C@H]1CCC[C@H](C(=O)O)C1` [Example 395], for which the concentration for half-maximal inhibition (IC50) was 51 nM.

Consider `CCc1nc(-c2nnn(C)c2CNc2nccc(OC)n2)ccc1O[C@H]1CCC[C@H](C(=O)O)C1` [Example 386], for which the IC50 was 460 nM.

Regarding `Cc1nc(-c2nnn(C)c2CNc2ncnc(NCCC3CC3)n2)ccc1O[C@H]1CCC[C@H](C(=O)O)C1` [Example 48], the 50% inhibitory concentration (IC50) came out at 220 nM.

With `Cc1nc(-c2nnn(C)c2COc2nccc(-n3cccn3)n2)ccc1O[C@H]1CCC[C@H](C(=O)O)C1` [Example 327], the IC50 amounted to 335 nM.

On to `CCOc1cc(NCc2c(-c3ccc(O[C@H]4CCC[C@H](C(=O)O)C4)c(C)n3)nnn2C)ncn1` [Example 272], for which the half-maximal inhibitory concentration (IC50) amounted to 163 nM.

With `Cc1nc(-c2nnn(C)c2Nc2cc(C3CC3)ccn2)ccc1O[C@H]1CCC[C@H](C(=O)O)C1` [Example 234, (1S,3S)-3-((6-(5-((4-cyclopropyl-pyridin-2-yl)amino)-1-methyl-1H-1,2,3-triazol-4-yl)-2-methylpyridin-3-yl)oxy)cyclohexane-1-carboxylic acid], the half-inhibitory concentration (IC50) was found to be 88 nM.

Consider `Cc1nc(-c2nnn(C)c2COc2nccc(COC(C)C)n2)ccc1O[C@H]1CCC[C@H](C(=O)O)C1` [Example 320], for which the 50% inhibitory concentration (IC50) amounted to 90 nM.

Consider `CCc1cc(OCc2c(-c3ccc(O[C@H]4CCC[C@H](C(=O)O)C4)cn3)nnn2C)ncn1` [Example 352], for which the IC50 came to 38 nM.

As to `Cc1nc(-c2nnn(C)c2CNc2nccc(C(C)(C)F)n2)ccc1O[C@H]1CCC[C@H](C(=O)O)C1` [Example 132], the IC50 is 53 nM.

In the case of `COc1cccc(Oc2ccnc(NCc3c(-c4ccc(O[C@H]5CCC[C@H](C(=O)O)C5)c(C)n4)nnn3C)n2)c1` [Example 105], the IC50 amounted to 22 nM.

Consider `Cc1nc(-c2nnn(C)c2CNc2nccc(OC3CC3)n2)c(F)cc1O[C@H]1CCC[C@H](C(=O)O)C1` [Example 383], for which the IC50 was 227 nM.

`Cc1nc(-c2nnn(C)c2CNc2ncc(F)c(NCCOc3ccc(F)cc3)n2)ccc1O[C@H]1CCC[C@H](C(=O)O)C1` [Example 265]: the IC50 was found to be 44 nM.

`COc1cc(C(C)C)nc(NCc2c(-c3ccc(O[C@H]4CCC[C@H](C(=O)O)C4)c(C)n3)nnn2C)n1` [Example 176]: the IC50 came to 27 nM.

As to `Cn1nnc(-c2ccc(O[C@H]3CCC[C@H](C(=O)O)C3)cn2)c1CNc1ccnc(OC2CC2)n1` [Example 140], the 50% inhibitory concentration (IC50) worked out at 1370 nM.

For `CCOc1ccnc(NCc2c(-c3cnc(O[C@H]4CCC[C@H](C(=O)O)C4)c(C)n3)nnn2C)n1` [Example 259], the IC50 came out at 131 nM.

With `Cc1nc(-c2nnn(C)c2CNc2cc(C(C)(C)C)ncn2)ccc1O[C@H]1CCC[C@H](C(=O)O)C1` [Example 23], the half-inhibitory concentration (IC50) was found to be 1050 nM.
